Measurements: US8334266B2, “Process for and intermediates in the preparation of canfosfamide and its salts” (Telik, Inc., priority 2004, dated 2012)
Structures can show the parent of a compound that is named as a salt.

How the values were obtained:
[1] = system: ovarian, breast, non-small cell lung, and colorectal cancers; conditions: cited from earlier work
[2] = system: HL-60 (promyeloid myelocytic leukemia)
Experimental: (§1) The human cancer cell lines HL-60 (promyeloid myelocytic leukemia) and MX-1 (breast carcinoma) were obtained from the National Cancer Institute, Bethesda, Md., U.S.A. The CellTiter-Glo assay kit was obtained from Promega Corporation, Madison, Wis., U.S.A, and was used in accordance with the manufacturer's directions. All assays were conducted in triplicate wells, with dimethyl sulfoxide (DMSO) solvent control. The extent of cell growth was expressed as a percentage of the signal from the solvent control wells.
(§2) Log-phase cells were trypsinized, collected by centrifugation, and resuspended in a small volume of fresh medium, and the density of viable cells was determined following Trypan Blue staining. Cells were diluted in fresh media (5×10^3 cells/mL for HL-60 and 3×10^3 cells/mL for MX-1 cells), Compound 4A (concentrations between 0.1 and 200 μM, dissolved in DMSO, 50 μL) added immediately after dilution to achieve a final DMSO concentration of 0.5%, then the suspensions added at 150 μL/well to 96-well plates, and incubated for several hours to allow attachment in the case of adherent cells. The cells were cultured for approximately three doubling times (3 days). The cells were then collected by centrifugation, and 100 μL of the culture supernatant was replaced by the CellTiter-Glo reagent. After incubation for 15 minutes at room temperature, and the plate was read with a luminometer.

[3] = system: MX-1 (breast carcinoma); conditions: MX-1, cultured 3 days, CellTiter-Glo
Experimental: as §1, §2

[4] = system: in vitro cell culture and tumor biopsies; conditions: cited from earlier work
[5] = system: M6709 human colon carcinoma cell line selected for resistance to doxorubicin; conditions: resistant line overexpresses GST P1-1; cited from earlier work
[6] = system: MCF-7 human breast carcinoma cell line selected for resistance to cyclophosphamide; conditions: resistant line overexpresses GST P1-1; cited from earlier work
[7] = system: M7609 engineered to have high, medium, and low levels of GST P1-1; conditions: murine xenografts; cited from earlier work

N[C@@H](CCC(=O)N[C@@H](CS(=O)(=O)CCOP(=O)(N(CCCl)CCCl)N(CCCl)CCCl)C(=O)N[C@@H](C(=O)O)c1ccccc1)C(=O)O [Canfosfamide hydrochloride]
hematological toxicity ([1]; patients treated): very low incidence of clinically significant hematological toxicity | antitumor activity ([1]; single agent, colorectal and breast cancer): single agent antitumor activity | antitumor activity and survival ([1]; single agent, patients with non-small cell lung cancer and ovarian cancer): significant single agent antitumor activity and improvement in survival

O=C(CC[C@H](NC(=O)OCc1ccccc1)C(=O)O)N[C@@H](CS(=O)(=O)CCOP(=O)(N(CCCl)CCCl)N(CCCl)CCCl)C(=O)N[C@@H](C(=O)O)c1ccccc1 [Compound 4A, N-α-(benzyloxycarbonyl)-L-γ-glutamyl-3-[[2-[[bis[bis(2-chloroethyl)amino]phosphinyl]oxy]-ethyl]sulfonyl]-L-alanyl-2-phenyl-(2R)-glycine]
IC50 ([2]; HL-60, cultured 3 days, CellTiter-Glo): 2.2 µM | potency compared with canfosfamide ([2]; in this assay (HL-60 and MX-1 cell lines)): approximately as potent as canfosfamide | IC50 [3]: 34.6 µM

N[C@@H](CCC(=O)N[C@@H](CS(=O)(=O)CCOP(=O)(N(CCCl)CCCl)N(CCCl)CCCl)C(=O)N[C@@H](C(=O)O)c1ccccc1)C(=O)O [canfosfamide, L-γ-glutamyl-3-[[2-[[bis[bis(2-chloroethyl)amino]phosphinyl]oxy]ethyl]sulfonyl]-L-alanyl-2-phenyl-(2R)-glycine]
cross-resistance to platinum, paclitaxel, doxorubicin and gemcitabine [4]: non-cross-resistant | potency relative to parental cell line [5]: more potent | potency relative to parental cell line [6]: more potent | potency in relation to GST P1-1 level [7]: positively correlated with the level of GST P1-1
